Data: US5495032A, “Process for producing 7-(substituted)-8-(substituted-9-[(substituted glycyl)amido]-6-demethyl-6-deoxytetracyclines” (priority 1994, dated 1996)
Values after ≈ are worked out from the molar mass of the structure shown. Like-named read-outs stand apart in the source and are kept apart here.

What was measured:
Format in all cases: cell-based
E. coli UBMS 88-1 Tet B = assay: microbe, parasite or virus in culture; details: 18 hours at 35° C.
[1] = test system: E. coli MC 4100 Tet sens.; assay: MIC, agar dilution method; details: 18 hours at 35° C.
E. coli PRP1 Tet A = assay: microbe, parasite or virus in culture; details: 18 hours at 35° C.
[2] = test system: E. coli MC 4100 TNIOC Tet B; assay: microbe, parasite or virus in culture; details: 18 hours at 35° C.
E. coli J3272 Tet C = assay: microbe, parasite or virus in culture; details: E. coli J3272 Tet C; 18 hours at 35° C.
E. coli UBMS 89-1 Tet M = assay: microbe, parasite or virus in culture; details: 18 hours at 35° C.
[3] = test system: E. coli UBMS 89-2 Tet sens; assay: MIC, agar dilution method; details: 18 hours at 35° C.
E. coli J2175 = assay: MIC, agar dilution method; details: 18 hours at 35° C.
E. coli BAJ9003 IMP MUT = assay: microbe, parasite or virus in culture; details: 18 hours at 35° C.
E. coli UBMS 90-4 Tet M = assay: microbe, parasite or virus in culture; details: 18 hours at 35° C.
E. coli UBMS 90-5 sens = assay: MIC, agar dilution method; details: 18 hours at 35° C.
E. coli #311 (MP) = assay: MIC, agar dilution method; details: 18 hours at 35° C.
E. coli ATCC 25922 = assay: MIC, agar dilution method; details: 18 hours at 35° C.
E. coli J3272 Tet D = assay: microbe, parasite or virus in culture; details: E. coli J3272 Tet D; 18 hours at 35° C.
S. mariescens FPOR 8733 = assay: MIC, agar dilution method; details: 18 hours at 35° C.
[4] = test system: X. maltophilia NEMC 87210; assay: MIC, agar dilution method
[5] = test system: Ps. acruginosa ATCC 27853; assay: MIC, agar dilution method; details: Ps. acruginosa ATCC 27853, 18 hours at 35° C.
S. aureus NEMC 8769 = assay: MIC, agar dilution method
S. aureus UBMS 88-4 = assay: MIC, agar dilution method; details: 18 hours at 35° C.
[6] = test system: S. aureus UBMS 88-5 Tet M; assay: microbe, parasite or virus in culture; details: S. aureus UBMS 88-5 Tet M; 18 hours at 35° C.
[7] = test system: S. aureus UBMS 88-7 Tet K; assay: microbe, parasite or virus in culture; details: 18 hours at 35° C.
[8] = test system: S. aureus UBMS 90-1 Tet M; assay: microbe, parasite or virus in culture; details: 18 hours at 35° C.
S. aureus UBMS 90-3 = assay: MIC, agar dilution method; details: S. aureus UBMS 90-3; 18 hours at 35° C.
[9] = test system: S. aureus UBMS 90-2 Tet M; assay: microbe, parasite or virus in culture; details: 18 hours at 35° C.
S. aureus IVES 2943 = assay: MIC, agar dilution method; details: S. aureus IVES 2943; 18 hours at 35° C.
S. aureus ROSE (MP) = assay: MIC, agar dilution method; details: 18 hours at 35° C.
S. aureus SMITH (MP) = assay: MIC, agar dilution method; details: 18 hours at 35° C.
S. aureus IVES 1 983 = assay: MIC, agar dilution method; details: S. aureus IVES 1 983; 18 hours at 35° C.
S. aureus ATCC 29213 = assay: MIC, agar dilution method; details: 18 hours at 35° C.
[10] = test system: S. hemolyticus AVHAH 88-3; assay: MIC, agar dilution method; details: 18 hours at 35° C.
Enterococcus 12201 = assay: MIC, agar dilution method; details: 18 hours at 35° C.
E. faecalis ATCC 29212 = assay: MIC, agar dilution method; details: 18 hours at 35° C.

| SMILES | MIC (E. coli UBMS 88-1 Tet B) [µg/mL] | MIC (E. coli PRP1 Tet A) [µg/mL] | MIC [2] [µg/mL] | MIC (E. coli J3272 Tet C) [µg/mL] | MIC (E. coli UBMS 89-1 Tet M) [µg/mL] | MIC [3] [µg/mL] | MIC (E. coli J2175) [µg/mL] | MIC (E. coli BAJ9003 IMP MUT) [µg/mL] | MIC (E. coli UBMS 90-4 Tet M) [µg/mL] | MIC (E. coli UBMS 90-5 sens) [µg/mL] | MIC (E. coli #311 (MP)) [µg/mL] | MIC (E. coli ATCC 25922) [µg/mL] | MIC (E. coli J3272 Tet D) [µg/mL] | MIC (S. mariescens FPOR 8733) [µg/mL] | MIC (S. aureus UBMS 88-4) [µg/mL] | MIC [6] [µg/mL] | MIC [7] [µg/mL] | MIC [8] [µg/mL] | MIC (S. aureus UBMS 90-3) [µg/mL] | MIC [9] [µg/mL] | also measured |
| --- | --- | --- | --- | --- | --- | --- | --- | --- | --- | --- | --- | --- | --- | --- | --- | --- | --- | --- | --- | --- | --- |
| CN(C)C1C(O)=C(C(N)=O)C(=O)C2(O)C(O)=C3C(=O)c4c(cc(Cl)c(NC(=O)CNCC5CC5)c4O)CC3CC12.Cl.Cl (stereo not drawn) [G, [4S-(4α,12aα)]-8-Chloro-9-[[(cyclopropylmethylamino)acetyl]amino]-4-(dimethylamino)-1,4,4a,5,5a,6,11,12a-octahydro-3,10,12,12a-tetrahydroxy-1,11-dioxo-2-naphthacenecarboxamide dihydrochloride] | 1 | 4 | 1 | 1 | 0.5 | 1 | 1 | 0.12 | 1 | 1 | 1 | 1 | 1 | 8 | 0.5 | 0.5 | 8 | 2 | 0.12 | 0.5 | MIC [1]: 0.25 µg/mL; MIC ([4]; 18 hours at 35° C.): 4 µg/mL; MIC [5]: 32 µg/mL; MIC (S. aureus NEMC 8769; S. aureus NEMC 8769, 18 hours at 35° C.): 0.5 µg/mL; MIC (S. aureus IVES 2943): 16 µg/mL; MIC (S. aureus ROSE (MP)): 32 µg/mL; MIC (S. aureus SMITH (MP)): 0.5 µg/mL; MIC (S. aureus IVES 1 983): 16 µg/mL; MIC (S. aureus ATCC 29213): 0.25 µg/mL; MIC [10]: 8 µg/mL; MIC (Enterococcus 12201): 0.25 µg/mL; MIC (E. faecalis ATCC 29212): 0.25 µg/mL |
| CN(C)CC(=O)Nc1c(Cl)cc2c(c1O)C(=O)C1=C(O)[C@]3(O)C(=O)C(C(N)=O)=C(O)[C@@H](N(C)C)C3CC1C2 (stereo partly drawn) [C, [4S-(4α,12aα)]-8-Chloro-4-(dimethylamino)-9-[[(dimethylamino)acetyl]amino]-1,4,4a,5,5a,6,11,12a-octahydro-3,10,12,12a-tetrahydroxy-1,11-dioxo-2-naphthacenecarboxamide] | 1 (≈ 1.82 µM) | 8 (≈ 14.6 µM) | 1 (≈ 1.82 µM) | 8 (≈ 14.6 µM) | 0.25 (≈ 0.455 µM) | 1 (≈ 1.82 µM) | 1 (≈ 1.82 µM) | 0.12 (≈ 0.219 µM) | 0.5 (≈ 0.911 µM) | 1 (≈ 1.82 µM) | 0.5 (≈ 0.911 µM) | 0.5 (≈ 0.911 µM) | 0.5 (≈ 0.911 µM) | 8 (≈ 14.6 µM) | 0.12 (≈ 0.219 µM) | 2 (≈ 3.64 µM) | 0.25 (≈ 0.455 µM) | 4 (≈ 7.29 µM) | 0.12 (≈ 0.219 µM) | 1 (≈ 1.82 µM) | MIC ([1]; Escherichia coli, read-out: MIC): 0.25 µg/mL (≈ 0.455 µM); MIC ([4]; Stenotrophomonas maltophilia, NEMC87210, 18 hours at 35° C., read-out: MIC): 0.05 µg/mL (≈ 0.0911 µM); MIC ([5]; read-out: MIC): > 32 µg/mL; MIC (S. aureus NEMC 8769; Staphylococcus aureus, NEMC8769, 18 h): 0.03 µg/mL (≈ 0.0546 µM); MIC (S. aureus IVES 2943): 4 µg/mL (≈ 7.29 µM); MIC (S. aureus ROSE (MP)): 1 µg/mL (≈ 1.82 µM); MIC (S. aureus SMITH (MP)): 0.12 µg/mL (≈ 0.219 µM); MIC (S. aureus IVES 1 983): 4 µg/mL (≈ 7.29 µM); MIC (S. aureus ATCC 29213): 0.25 µg/mL (≈ 0.455 µM); MIC [10]: 0.5 µg/mL (≈ 0.911 µM); MIC (Enterococcus 12201): 8 µg/mL (≈ 14.6 µM); MIC (E. faecalis ATCC 29212; Enterococcus faecalis, ATCC29212, 18 h): 0.5 µg/mL (≈ 0.911 µM) |
